ChEMBL document CHEMBL1201862, “PubChem BioAssay data set” (2004)
Activity calls are given as the source filed them.

How the values were obtained:
[1] = biological target: Beta Lactamase (Pseudomonas aeruginosa, UniProt Q932Y6); assay: beta-lactamase reporter inhibitor potency, dose response, artefact control for TLR9-MyD88 binding inhibitor project, BLA reporter cells, FRET fluorescence (AID 588341); format: cell-based;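 further: cell based assay in CHO-K1 cells stably expressing beta-lactamase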
Sequence of Beta Lactamase (Q932Y6 whole entry): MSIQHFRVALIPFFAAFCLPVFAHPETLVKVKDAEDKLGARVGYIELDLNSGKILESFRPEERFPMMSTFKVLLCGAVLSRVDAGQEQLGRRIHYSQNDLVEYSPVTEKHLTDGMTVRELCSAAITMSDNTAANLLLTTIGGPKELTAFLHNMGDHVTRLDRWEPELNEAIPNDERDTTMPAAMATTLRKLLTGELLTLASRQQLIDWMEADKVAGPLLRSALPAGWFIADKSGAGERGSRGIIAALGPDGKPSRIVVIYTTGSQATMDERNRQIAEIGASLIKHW

[2] = cytotoxicity in HEK-293T cells, dose response, cytotoxicity control for TCR NF-kB inhibitor project, luminescence, T-cell screen hits (AID 489026); format: functional, cell-based;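 further: cells exposed to compound about 14 hours before the viability readout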
[3] = tested on: CHO; assay: cytotoxicity in TLR9-MyD88 CHO cells, dose response, cytotoxicity control for TLR9-MyD88 binding inhibitor project, cell-based, luminescence (AID 588339); format: functional, hamster; details: Cricetulus griseus;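 further: CHO cells stably coexpressing TLR9 and MyD88 fusions from primary screen; compound exposure lasted 48 hours before viability readout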
[4] = biological target: T1, Sphingosine 1-phosphate receptor 4 (Homo sapiens, UniProt O95977); assay: Fluorescence dose response cell-based high throughput screening assay for antagonists of the Sphingosine 1-Phosphate Receptor 4 (S1P4). [Related pubchem assays: 1524 (Confirmation in triplicates.), 1510 (Primary screen.)]; format: functional
T1 sequence (O95977 whole entry): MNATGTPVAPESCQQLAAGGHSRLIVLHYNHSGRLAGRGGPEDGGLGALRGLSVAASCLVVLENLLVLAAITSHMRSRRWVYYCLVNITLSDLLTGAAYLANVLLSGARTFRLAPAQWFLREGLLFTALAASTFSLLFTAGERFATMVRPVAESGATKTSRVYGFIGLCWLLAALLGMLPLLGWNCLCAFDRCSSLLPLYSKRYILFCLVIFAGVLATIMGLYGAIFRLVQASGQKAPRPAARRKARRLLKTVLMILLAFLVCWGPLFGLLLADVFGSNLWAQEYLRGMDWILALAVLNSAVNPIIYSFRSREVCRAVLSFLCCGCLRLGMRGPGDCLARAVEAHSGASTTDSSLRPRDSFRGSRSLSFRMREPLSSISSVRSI

[5] = biological target: Sphingosine 1-phosphate receptor 1 (Homo sapiens, UniProt P21453); format: functional;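 further: Tango beta-arrestin reporter U2OS cells stimulated with S1P near its EC80; inhibitor potency meaning antagonism of receptor activation by the natural agonist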
Sequence of Sphingosine 1-phosphate receptor 1 (P21453 whole entry): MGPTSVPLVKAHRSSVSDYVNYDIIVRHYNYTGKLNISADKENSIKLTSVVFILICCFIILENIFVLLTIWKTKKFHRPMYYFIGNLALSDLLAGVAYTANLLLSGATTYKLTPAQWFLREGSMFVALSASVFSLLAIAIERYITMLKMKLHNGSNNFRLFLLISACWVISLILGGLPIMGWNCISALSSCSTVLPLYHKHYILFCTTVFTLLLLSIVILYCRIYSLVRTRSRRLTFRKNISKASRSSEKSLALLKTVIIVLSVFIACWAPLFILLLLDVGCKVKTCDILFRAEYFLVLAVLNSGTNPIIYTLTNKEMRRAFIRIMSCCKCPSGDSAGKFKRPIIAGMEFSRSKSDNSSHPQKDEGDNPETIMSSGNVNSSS

[6] = biological target: Sphingosine 1-phosphate receptor 2 (Homo sapiens, UniProt O95136); assay: Dose Response Cell Based Assay for Antagonists of the S1P2 Receptor. [Related pubchem assays: 856, 736 ]; format: functional
Sequence of Sphingosine 1-phosphate receptor 2 (O95136 whole entry): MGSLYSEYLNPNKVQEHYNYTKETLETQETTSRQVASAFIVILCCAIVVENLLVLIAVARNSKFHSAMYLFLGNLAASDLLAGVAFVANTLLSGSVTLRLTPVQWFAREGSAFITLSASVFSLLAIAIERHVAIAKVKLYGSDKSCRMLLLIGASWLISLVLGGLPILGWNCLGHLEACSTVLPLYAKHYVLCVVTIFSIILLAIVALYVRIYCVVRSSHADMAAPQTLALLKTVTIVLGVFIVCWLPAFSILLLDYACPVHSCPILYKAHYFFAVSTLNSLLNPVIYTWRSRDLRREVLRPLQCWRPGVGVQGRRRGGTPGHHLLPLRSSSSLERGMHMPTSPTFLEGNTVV

[7] = biological target: T2, Replicative DNA helicase DnaB (Mycobacterium tuberculosis, UniProt P9WMR3); assay: DnaB intein splicing inhibitors, dose response, biochemical, cell-free fluorescence (AID 449749); format: functional
T2 sequence (P9WMR3 whole entry): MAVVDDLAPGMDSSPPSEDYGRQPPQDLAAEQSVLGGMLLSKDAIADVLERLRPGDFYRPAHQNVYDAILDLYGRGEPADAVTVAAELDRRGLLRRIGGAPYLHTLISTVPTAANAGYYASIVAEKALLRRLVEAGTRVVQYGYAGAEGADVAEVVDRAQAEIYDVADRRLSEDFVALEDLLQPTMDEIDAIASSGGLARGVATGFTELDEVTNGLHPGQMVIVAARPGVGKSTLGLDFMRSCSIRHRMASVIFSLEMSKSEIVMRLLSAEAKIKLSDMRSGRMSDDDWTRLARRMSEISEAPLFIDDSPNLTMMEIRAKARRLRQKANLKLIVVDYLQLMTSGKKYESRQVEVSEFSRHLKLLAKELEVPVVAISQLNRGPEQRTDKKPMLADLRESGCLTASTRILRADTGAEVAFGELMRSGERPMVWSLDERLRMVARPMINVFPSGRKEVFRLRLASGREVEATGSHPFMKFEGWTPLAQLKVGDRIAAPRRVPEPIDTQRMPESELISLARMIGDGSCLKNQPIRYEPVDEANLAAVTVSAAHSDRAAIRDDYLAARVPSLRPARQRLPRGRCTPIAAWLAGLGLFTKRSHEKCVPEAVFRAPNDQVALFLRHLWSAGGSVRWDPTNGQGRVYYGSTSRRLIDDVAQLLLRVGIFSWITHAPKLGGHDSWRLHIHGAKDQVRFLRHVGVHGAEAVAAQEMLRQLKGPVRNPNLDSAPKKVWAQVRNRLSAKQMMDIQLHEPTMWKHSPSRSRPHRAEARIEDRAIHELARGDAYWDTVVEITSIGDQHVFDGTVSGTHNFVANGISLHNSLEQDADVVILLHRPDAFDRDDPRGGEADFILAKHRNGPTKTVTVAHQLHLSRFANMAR

[8] = control 3'UTR Renilla luciferase suppression, dose response, counter-screen for Shn3 inhibitor project, cell-based, Clone20-Shn3RL, cherry-picked (AID 624133); format: functional
[9] = biological target: T3, Protein RecA (Mycobacterium tuberculosis, UniProt P9WHJ3); assay: Fluorescence Cell-Free Homogeneous Dose Retest to Identify Inhibitors of RecA-Intein Splicing Activity. [Related pubchem assays (depositor defined):AID2097, AID2223, AID489010, AID492950]; format: functional
T3 sequence (P9WHJ3 whole entry): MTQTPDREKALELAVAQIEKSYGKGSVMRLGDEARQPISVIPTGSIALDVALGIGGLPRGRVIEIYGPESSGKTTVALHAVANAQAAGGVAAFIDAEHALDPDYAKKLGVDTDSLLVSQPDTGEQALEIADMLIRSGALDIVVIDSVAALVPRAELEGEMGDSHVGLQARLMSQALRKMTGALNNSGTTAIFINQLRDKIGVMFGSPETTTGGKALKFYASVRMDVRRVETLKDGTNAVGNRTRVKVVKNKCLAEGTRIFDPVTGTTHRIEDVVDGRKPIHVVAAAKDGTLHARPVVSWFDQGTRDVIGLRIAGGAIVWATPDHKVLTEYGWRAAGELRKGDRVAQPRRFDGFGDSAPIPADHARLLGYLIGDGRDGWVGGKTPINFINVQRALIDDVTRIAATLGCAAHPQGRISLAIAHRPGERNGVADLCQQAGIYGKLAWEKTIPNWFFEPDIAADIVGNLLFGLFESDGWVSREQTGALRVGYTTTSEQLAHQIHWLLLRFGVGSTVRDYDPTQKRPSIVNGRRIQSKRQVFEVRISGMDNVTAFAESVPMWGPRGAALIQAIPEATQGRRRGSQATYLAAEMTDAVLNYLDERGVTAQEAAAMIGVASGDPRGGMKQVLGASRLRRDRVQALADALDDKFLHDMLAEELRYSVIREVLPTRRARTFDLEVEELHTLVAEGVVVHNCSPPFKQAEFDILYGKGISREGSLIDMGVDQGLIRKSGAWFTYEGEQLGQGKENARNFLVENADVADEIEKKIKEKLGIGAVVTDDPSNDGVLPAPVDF

[10] = HepG2 cell cytotoxicity, dose response, cytotoxicity control for Shn3 inhibitor project, CellTiter-Glo, cherry-picked (AID 624134); format: functional, cell-based
[11] = Shn3 3'UTR reporter inhibitors, dose response, cell-based, Clone20 osteoblasts, firefly luciferase, cherry-picked (AID 624132); format: functional;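 further: firefly luciferase luminescence from reporter carrying the Shn3 3'UTR in osteoblasts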
[12] = biological target: T4, Sentrin-specific protease 7 (Homo sapiens, UniProt Q9BQF6); assay: SENP7 protease inhibitors, SAR follow-up, biochemical, luminescence (AID 504497); format: functional
T4 sequence (Q9BQF6 whole entry): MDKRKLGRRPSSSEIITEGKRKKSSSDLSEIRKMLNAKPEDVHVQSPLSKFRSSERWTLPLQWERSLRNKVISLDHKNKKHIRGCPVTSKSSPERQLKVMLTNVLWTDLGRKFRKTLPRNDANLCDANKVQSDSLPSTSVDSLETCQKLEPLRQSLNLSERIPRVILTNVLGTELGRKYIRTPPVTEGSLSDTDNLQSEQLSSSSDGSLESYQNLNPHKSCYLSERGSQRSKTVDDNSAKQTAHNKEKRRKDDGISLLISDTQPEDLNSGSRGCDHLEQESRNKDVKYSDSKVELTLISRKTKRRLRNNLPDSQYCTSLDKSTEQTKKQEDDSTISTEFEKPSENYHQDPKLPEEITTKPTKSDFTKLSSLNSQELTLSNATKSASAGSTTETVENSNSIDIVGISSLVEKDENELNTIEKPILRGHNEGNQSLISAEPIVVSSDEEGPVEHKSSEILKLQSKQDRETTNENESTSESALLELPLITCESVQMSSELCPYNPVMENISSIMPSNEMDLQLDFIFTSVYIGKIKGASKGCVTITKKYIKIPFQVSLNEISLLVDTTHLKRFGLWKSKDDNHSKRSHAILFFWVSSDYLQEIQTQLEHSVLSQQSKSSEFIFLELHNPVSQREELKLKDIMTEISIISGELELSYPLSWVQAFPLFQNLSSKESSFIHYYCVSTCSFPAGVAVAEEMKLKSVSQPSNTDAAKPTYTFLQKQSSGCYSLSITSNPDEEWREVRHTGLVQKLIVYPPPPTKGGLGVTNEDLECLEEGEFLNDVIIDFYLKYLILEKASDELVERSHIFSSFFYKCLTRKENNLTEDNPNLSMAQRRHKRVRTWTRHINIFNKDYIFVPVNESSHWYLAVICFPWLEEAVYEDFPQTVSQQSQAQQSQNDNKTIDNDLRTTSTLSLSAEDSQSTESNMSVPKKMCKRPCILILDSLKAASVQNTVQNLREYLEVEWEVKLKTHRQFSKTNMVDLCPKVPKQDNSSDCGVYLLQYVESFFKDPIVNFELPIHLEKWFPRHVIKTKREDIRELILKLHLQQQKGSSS

[13] = biological target: T5, Caspase-3 (Homo sapiens, UniProt P42574); assay: SAR Analysis of small molecule inhibitors of Sentrin-specific proteases (SENPs) using a Caspase-3 Selectivity assay. [Related pubchem assays (depositor defined):AID2540, AID2599, AID434973, AID489001]; format: functional
T5 sequence (P42574 whole entry): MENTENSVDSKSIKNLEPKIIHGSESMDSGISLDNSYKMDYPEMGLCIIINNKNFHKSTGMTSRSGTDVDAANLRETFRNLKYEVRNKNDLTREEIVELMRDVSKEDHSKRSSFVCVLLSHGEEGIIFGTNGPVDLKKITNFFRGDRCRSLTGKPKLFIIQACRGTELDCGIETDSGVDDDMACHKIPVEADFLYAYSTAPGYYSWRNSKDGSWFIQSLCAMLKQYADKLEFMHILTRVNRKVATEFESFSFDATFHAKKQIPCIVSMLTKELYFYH

[14] = biological target: T6, Sentrin-specific protease 8 (Homo sapiens, UniProt Q96LD8); assay: SENP8 protease inhibitors, SAR follow-up, biochemical, luminescence (AID 504501); format: functional
T6 sequence (Q96LD8 whole entry): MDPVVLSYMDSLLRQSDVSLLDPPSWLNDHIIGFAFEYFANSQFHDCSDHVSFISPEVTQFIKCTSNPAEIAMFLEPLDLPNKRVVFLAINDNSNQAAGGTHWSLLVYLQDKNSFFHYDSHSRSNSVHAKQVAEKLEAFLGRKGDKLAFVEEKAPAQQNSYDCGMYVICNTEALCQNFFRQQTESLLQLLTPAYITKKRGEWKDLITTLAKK

[15] = biological target: T7, Sentrin-specific protease 6 (Homo sapiens, UniProt Q9GZR1); assay: SAR Analysis of small molecule inhibitors of Sentrin-specific protease 6 (SENP6) using a Luminescent assay. [Related pubchem assays (depositor defined):AID2582, AID2599]; format: functional
T7 sequence (Q9GZR1 whole entry): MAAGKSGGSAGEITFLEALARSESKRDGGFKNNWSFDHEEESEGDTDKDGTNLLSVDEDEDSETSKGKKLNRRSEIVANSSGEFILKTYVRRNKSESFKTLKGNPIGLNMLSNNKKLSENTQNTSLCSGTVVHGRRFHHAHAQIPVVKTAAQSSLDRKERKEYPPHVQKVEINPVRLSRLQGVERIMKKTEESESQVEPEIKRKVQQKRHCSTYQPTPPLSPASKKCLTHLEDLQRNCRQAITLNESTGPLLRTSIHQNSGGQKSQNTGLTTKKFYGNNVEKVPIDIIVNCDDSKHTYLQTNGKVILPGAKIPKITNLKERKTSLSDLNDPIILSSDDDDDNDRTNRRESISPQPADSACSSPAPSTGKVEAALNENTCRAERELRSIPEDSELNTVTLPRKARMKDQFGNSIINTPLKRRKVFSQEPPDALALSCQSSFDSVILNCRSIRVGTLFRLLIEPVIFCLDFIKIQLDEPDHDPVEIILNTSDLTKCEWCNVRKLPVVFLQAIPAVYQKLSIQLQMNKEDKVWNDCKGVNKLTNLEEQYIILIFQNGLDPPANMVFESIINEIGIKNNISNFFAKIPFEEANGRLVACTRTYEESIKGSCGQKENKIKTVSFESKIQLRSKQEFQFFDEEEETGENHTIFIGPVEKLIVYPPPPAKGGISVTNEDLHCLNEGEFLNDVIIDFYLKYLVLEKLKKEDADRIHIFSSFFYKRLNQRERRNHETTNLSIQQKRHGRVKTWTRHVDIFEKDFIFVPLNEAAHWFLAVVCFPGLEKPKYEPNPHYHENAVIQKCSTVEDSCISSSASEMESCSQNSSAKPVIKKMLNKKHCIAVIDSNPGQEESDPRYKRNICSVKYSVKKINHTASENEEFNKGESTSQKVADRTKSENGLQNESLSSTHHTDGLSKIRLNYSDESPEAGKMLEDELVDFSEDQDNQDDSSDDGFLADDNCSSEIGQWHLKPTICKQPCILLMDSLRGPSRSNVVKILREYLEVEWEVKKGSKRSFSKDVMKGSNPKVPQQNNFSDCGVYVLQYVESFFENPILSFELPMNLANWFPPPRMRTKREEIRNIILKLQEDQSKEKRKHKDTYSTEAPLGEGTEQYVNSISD

Structure (SMILES)	IC50 [1]	IC50 [2]	IC50 [3]	IC50 [4]	IC50 [5]	IC50 [6]	AC50 [7]	AC50 [8]	EC50 [9]	AC50 [10]	AC50 [11]	IC50 [12]	IC50 [13]	IC50 [14]	IC50 [15]
COc1ccc(CS(=O)(=O)/C(Cl)=C(/Cl)C(=O)Nc2ccc(OC)nc2)cc1	> 49.7 µM (inactive)	27.9 µM (inactive)	2.03 µM (active)	0.852 µM (active)	6.21 µM (active)	1.67 µM (active)	3.88 µM (active)	6.84 µM (active)	3.34 µM (active)	10.6 µM (active)	< 0.26 µM (active)				
CCOc1ccc2nc(NC(=O)c3nc(SC(C)C)ncc3Cl)sc2c1												> 99 µM (inactive)	> 99 µM (inactive)	> 99 µM (inactive)	> 99 µM (inactive)
